{"source": "patent US20190314345A1", "about": "“CALCINEURIN INHIBITOR AND NON-STEROIDAL ANTI-INFLAMMATORY DRUG TO REDUCE RISK OF POST-IMAGING PANCREATITIS” (UNIVERSITY OF PITTSBURGH - OF THE COMMONWEALTH SYSTEM OF …, priority 2016, published 2019)", "key": {"PEP model in mice": {"system": "PEP model in mice", "assay": "PEP model with intraductal delivery of Cn inhibitors with the radiocontrast", "assay_type": "in vivo, mouse", "conditions": "CsA 10 μM", "experimental": "PEP was induced as previously described^73. Briefly, 100 μl iohexol (Omnipaque, GE Healthcare, Princeton, N.J.) was infused retrograde into the biliopancreatic duct at a rate of 20 μl/min for 5 min. Mice from the ductal manipulation (DM) group received retrograde infusion of 50 μl normal saline into pancreatic ductal at a lower rate of 10 μl/min for 5 min. Mice were euthanized 24 hr after PEP induction by CO2 inhalation and cervical dislocation. Mice from the sham group received laparotomy only. Blood was collected by retro-orbital bleed 6 h after PEP induction. […] Serum amylase was measured using a Phadebas Kit (Amersham Pharmacia, Rochester, N.Y.) according to the manufacturer's instruction. The pancreas, duodenum, and spleen were placed en bloc in a cassette in order to maintain anatomical orientation (FIG. 18A). The tissues were fixed in 4% paraformaldehyde at room temperature for 24 hr. Paraffin-embedded sections were stained with hematoxylin and eosin (HE). Ten systematically selected fields at 200× magnification were graded in a blinded fashion from the head of the pancreas, which was identified by its juxtaposition to the duodenum. […] Labelled areas within the parenchyma were marked as edema, and their surface area was calculated as a percentage of the total parenchymal area."}, "primary acinar cells": {"system": "primary acinar cells", "assay": "Cell necrosis assay (propidium iodide uptake) in primary acinar cells", "assay_type": "cell-based, mouse", "conditions": "6 hr incubation; U73122 5 μM, 2-APB 100 μM, BAPTA 64 μM, IKK-2 20 μM, FK506 24 μM, CsA 16 μM", "experimental": "Acinar cells were incubated in a 48-well plate with 50 μg/ml of propidium iodide (PI) for 30 min prior to addition of RC. Fluorescence was measured at 536 nm excitation and 617 nm emission wavelengths over time a time course of up to 6 hr. Fluorescence was measured after cell lysis with 0.5% Triton-X 100 was used to normalize the results relative to total DNA."}, "calcineurin": {"system": "calcineurin", "assay": "NFAT-luciferase activity assay in mouse primary acinar cells", "assay_type": "cell-based", "conditions": "30 min pre-treatment; FK506 24 μM, CsA 16 μM, BAPTA-AM 64 μM", "experimental": "Acinar cells were infected with Ad-NFAT-luciferase following a previously described procedure^10, 15, 16. The construct includes a luciferase gene placed downstream of an IL-4 promoter which contains nine tandem NFAT binding sites^10. Acinar cells were incubated with the NFAT-driven luciferase adenovirus for 1.5 hr prior to stimulation. All of the stated inhibitors were added for 30 min prior to stimulation with RC. NFAT-luciferase was measured using the luciferase assay system. Briefly, cells were spun at 1,000 rpm for 5 min, washed with PBS, and lysed using reporter lysis 5× buffer (Promega #E397A, Madison, Wis.). Samples were vortexed and spun at 12,000 g for 2 min. Supernatant was plated, and luminescence was measured using a Synergy H1 plate reader (BioTek, Winooski, Vt.) and normalized to total protein."}, "[1]": {"system": "duct manipulation (DM) model in mice", "assay": "Duct manipulation (DM) mild model with intraductal Cn inhibitors", "assay_type": "in vivo, mouse", "conditions": "FK506 1 μM, CsA 10 μM", "experimental": "PEP was induced as previously described^73. Briefly, 100 μl iohexol (Omnipaque, GE Healthcare, Princeton, N.J.) was infused retrograde into the biliopancreatic duct at a rate of 20 μl/min for 5 min. Mice from the ductal manipulation (DM) group received retrograde infusion of 50 μl normal saline into pancreatic ductal at a lower rate of 10 μl/min for 5 min. Mice were euthanized 24 hr after PEP induction by CO2 inhalation and cervical dislocation. Mice from the sham group received laparotomy only. The pancreas, duodenum, and spleen were placed en bloc in a cassette in order to maintain anatomical orientation (FIG. 18A). The tissues were fixed in 4% paraformaldehyde at room temperature for 24 hr. Paraffin-embedded sections were stained with hematoxylin and eosin (HE). Ten systematically selected fields at 200× magnification were graded in a blinded fashion from the head of the pancreas, which was identified by its juxtaposition to the duodenum. The grading score gave equal weight (from 0 to 3) for edema, inflammatory infiltration, and necrosis, as described^5. Edema indices were further delineated objectively by performing intensity thresholding using ImageJ software (NIH, Bethesda, Md.). […] Labelled areas within the parenchyma were marked as edema, and their surface area was calculated as a percentage of the total parenchymal area."}, "[2]": {"system": "IL-6, GADD45B, IL-1β expression", "assay": "Real-time PCR gene expression from the pancreatic head", "assay_type": "in vivo, mouse", "conditions": "RC exposure, with or without FK506 pretreatment", "experimental": "Total RNA from the pancreatic head was obtained by homogenizing 40 mg of tissue in 2 ml of TRIzol reagent (Life Technologies; Grand Island N.Y.) at 4° C. and immediately flash frozen in liquid nitrogen. Samples were thawed on ice and centrifuged at 12,000×g for 10 min at 4° C. The supernatant was diluted with 200 μl of chloroform and centrifuged at 12,000×g for 15 min at 4° C. The upper aqueous phase was treated with 0.5 ml of isopropanol and centrifuged at 10,000×g for 10 min at 4° C. The pellet was resuspended with 150 μl of 75% ethanol and centrifuged at 7500×g for 5 min at 4° C. The pellet was air-dried and dissolved in 100 μl of nuclease-free water. Total RNA samples were used to generate cDNA using the iScript Advanced cDNA synthesis Kit (Bio Rad; Hercules, Calif.).\nQuantitative real-time PCR (rtPCR) was performed to determine the relative expression of the cytokines IL-6 and IL-1β as well as the cell growth arrest and DNA-damage inducible gene GADD45B. The primer pairs for each as well as a GAPDH control were obtained as part of the PrimePCR-PreAMP SYBR Green Assay (Bio Rad; unique assay ID # qMmuCEP0054186, qMmuCID0005641, qMmuCEP0039581). rtPCR reactions were carried out in 20 μl volume reactions using the SsoAdvanced Universal Supermix SYBR Green system (Bio Rad). The reactions contained 1× SsoAdvanced Universal SYBR Green Supermix, 300 nM forward Primer, 300 nM reverse primer and 100 ng cDNA. rtPCR conditions were 95° C. for 10 sec and 60° C. for 30 sec for 35 cycles on a Bio Rad CFX96 Touch thermocycler (Bio Rad). Results for the expression of mRNA were normalized to expression of […] and are represented relative to expression levels for each of the control groups."}}}
{"smiles": "C=CC[C@@H]1/C=C(\\C)C[C@H](C)C[C@H](OC)[C@H]2O[C@@](O)(C(=O)C(=O)N3CCCC[C@H]3C(=O)O[C@H](/C(C)=C/[C@@H]3CC[C@@H](O)[C@H](OC)C3)[C@H](C)[C@@H](O)CC1=O)[C@H](C)C[C@@H]2OC", "note": "[FK506, tacrolimus]", "values": [{"measurement": "serum amylase elevations seen with PEP", "setting": "PEP model in mice; 6 hr after infusion, intraductal FK506 1 μM", "value": "reduced"}, {"measurement": "reduction of severity of the moderate model of PEP", "setting": "PEP model in mice; intraductal with radiocontrast, FK506 1 μM, down to sham levels", "value": 61, "unit": "%"}, {"measurement": "effect on RC (12%)-induced acinar cell injury (PI uptake)", "setting": "primary acinar cells", "value": "prevented"}, {"measurement": "effect on RC-induced rise in NFAT-luciferase", "setting": "calcineurin", "value": "largely prevented"}, {"measurement": "effect on mild histological damage seen with DM", "setting": "[1]", "value": "did not affect"}, {"measurement": "gene expression of GADD45B", "setting": "[2]", "value": "significant reduction"}, {"measurement": "gene expression of IL-1β", "setting": "[2]", "value": "trend toward reduction"}, {"measurement": "gene expression of IL-6", "setting": "[2]", "value": "significant reduction"}]}
